This passage reports EC50 results from US20220056019A1, “FARNESOID X RECEPTOR AGONISTS AND USES THEREOF” (Metacrine, Inc., priority 2018, published 2022).

SMILES strings stand for the structures. Bounds are passed on as bounds.

The assay has as its target T1, hFXR (Homo sapiens, UniProt Q96RI1).
T1 construct: expressed in transfected cells; host or cells: CV-1 cells
T1 sequence (Q96RI1 1-486): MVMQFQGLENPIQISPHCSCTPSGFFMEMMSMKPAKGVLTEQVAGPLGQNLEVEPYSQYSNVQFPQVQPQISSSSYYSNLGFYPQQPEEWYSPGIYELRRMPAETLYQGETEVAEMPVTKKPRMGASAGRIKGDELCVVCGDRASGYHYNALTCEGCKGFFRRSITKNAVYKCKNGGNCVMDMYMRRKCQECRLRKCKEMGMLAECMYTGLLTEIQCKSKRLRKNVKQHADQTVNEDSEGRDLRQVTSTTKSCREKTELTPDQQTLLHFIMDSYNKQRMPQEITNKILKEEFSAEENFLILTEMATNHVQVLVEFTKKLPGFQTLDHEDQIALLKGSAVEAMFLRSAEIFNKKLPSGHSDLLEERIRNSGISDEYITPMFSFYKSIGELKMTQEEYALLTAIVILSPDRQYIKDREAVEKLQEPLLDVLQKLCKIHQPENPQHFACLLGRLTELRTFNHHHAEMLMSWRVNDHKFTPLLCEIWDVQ
T1 sequence (P19793 1-462 partner): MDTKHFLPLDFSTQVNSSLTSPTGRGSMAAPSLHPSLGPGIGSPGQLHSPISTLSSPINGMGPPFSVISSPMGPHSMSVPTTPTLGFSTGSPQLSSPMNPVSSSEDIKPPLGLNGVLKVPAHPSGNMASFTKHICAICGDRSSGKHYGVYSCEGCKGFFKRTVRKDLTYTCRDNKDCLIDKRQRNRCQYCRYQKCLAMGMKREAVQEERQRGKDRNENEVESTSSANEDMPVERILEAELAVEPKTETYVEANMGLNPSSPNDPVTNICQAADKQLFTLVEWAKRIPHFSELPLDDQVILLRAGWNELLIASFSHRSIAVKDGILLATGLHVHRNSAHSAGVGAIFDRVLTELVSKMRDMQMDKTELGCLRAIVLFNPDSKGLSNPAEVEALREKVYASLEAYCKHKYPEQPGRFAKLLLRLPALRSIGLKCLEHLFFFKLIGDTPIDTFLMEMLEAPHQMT
In words: In Vitro FXR Assay (TK): TK-ECRE-luc reporter in transfected CV-1 cells. Type of assay: cell-based. The settings on record: 18 hrs incubation, luminescence. The gist of the method:
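CV-1, DMEM/10% charcoal-stripped FBS, 37 °C 5% CO2. Transfection O/N: hFXR + hRXR + TK-ECRE-luc + pCMX-YFP. Cpds (DMSO serial dil.) 18 h; lyse, read luminescence.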
Consider `COc1ccc(C23CCC(CN(c4cc(-c5cnn(C(C)C)c5)ccn4)C(=O)[C@H]4CC[C@H](OC(=O)NCC(C)(C)O)CC4)(CC2)CC3)cc1C` [Compound 4.06, 4-((4-(1-Isopropyl-1H-pyrazol-4-yl)pyridin-2-yl)((4-(4-methoxy-3-methylphenyl)bicyclo [2.2.2]octan-1-yl)methyl)carbamoyl)cyclohexyl (2-hydroxy-2-methylpropyl)trans-carbamate], for which the EC50 (as a rule, the concentration giving half of the maximal effect) was not above 50 nM.

`COc1ccc([C@H]2CC[C@H](CN(c3cc(-c4cc(C5CC5)on4)ccn3)C(=O)[C@H]3CC[C@H](OC(=O)N4CC(O)C4)CC3)CC2)cc1C` [Compound 2.09, trans-4-((4-(5-Cyclopropylisoxazol-3-yl)pyridin-2-yl)((trans-4-(4-methoxy-3-methylphenyl)cyclohexyl)methyl)carbamoyl)cyclohexyl 3-hydroxyazetidine-1-carboxylate] displayed an EC50 not above 50 nM.

`COc1ccc([C@H]2CC[C@H](CN(c3cccc(-c4cnn(C(C)C)c4)c3)C(=O)[C@H]3CC[C@H](CNC(=O)OCCO)CC3)CC2)cc1C` [Compound 12.06, 2-Hydroxyethyl (((trans)-4-((3-(1-isopropyl-1H-pyrazol-4-yl)phenyl)(((trans)-4-(4-methoxy-3-methylphenyl)cyclohexyl)methyl)carbamoyl)cyclohexyl)methyl)car-bamate] displayed a concentration giving a half-maximal response (EC50) not above 50 nM.

Consider `CCCNC(=O)O[C@H]1CC[C@H](C(=O)N(C[C@H]2CC[C@H](c3ccc(OC)c(C)c3)CC2)c2cccc(-c3cnn(C(C)C)c3)c2)CC1` [Compound 5.03, trans-4-((3-(1-Isopropyl-1H-pyrazol-4-yl)phenyl)(((trans)-4-(4-methoxy-3-methylphenyl)cyclohexyl)methyl)carbamoyl)cyclohexyl propylcarbamate], for which the EC50 is not above 50 nM.

As to `COc1ccc([C@H]2CC[C@H](CN(c3cc(-c4cnn(C(C)C)c4)ccn3)C(=O)[C@H]3CC[C@H](OC(=O)N4CC(OCCO)C4)CC3)CC2)cc1C` [Compound 2.11, trans-4-((4-(1-Isopropyl-1H-pyrazol-4-yl)pyridin-2-yl)(((trans)-4-(4-methoxy-3-methylphenyl)cyclohexyl)methyl)carbamoyl) cyclohexyl3-(2-hydroxyethoxy)azetidine-1-carboxylate], the EC50 was not above 50 nM.

`COc1ccc([C@H]2CC[C@H](CN(c3cc(-c4coc(C(C)C)n4)ccn3)C(=O)[C@H]3CC[C@H](OC(=O)NCC(C)(C)O)CC3)CC2)cc1C` [Compound 2.26, trans-4-((4-(2-Isopropyloxazol-4-yl)pyridin-2-yl)(((trans)-4-(4-methoxy-3-methylphenyl)cyclohexyl)methyl)carbamoyl)cyclohexyl (2-hydroxy-2-methylpropyl)carbamate] had an EC50 not above 50 nM.

Take `COCC(=O)N[C@H]1CC[C@H](C(=O)N(CC23CCC(c4ccc(OC)c(C)c4)(CC2)CC3)c2cc(-c3coc(C4CC4)n3)ccn2)CC1` [Compound 9.10, (trans)-N-(4-(2-Cyclopropyloxazol-4-yl)pyridin-2-yl)-N-((4-(4-methoxy-3-methylphenyl)bicyclo[2.2.2]octan-1-yl)methyl)-4-(2-methoxyacetamido)cyclohexanecar-boxamide]: the EC50 was not above 50 nM.

`COc1ccc(C23CCC(CN(c4nccc(-c5cnn(C(C)C)c5)n4)C(=O)[C@H]4CC[C@H](OC(=O)N5CC(O)C5)CC4)(CC2)CC3)cc1C` [Compound 4.60, 4-((4-(1-Isopropyl-1H-pyrazol-4-yl)pyrimidin-2-yl)((4-(4-methoxy-3-methylphenyl)bicyclo [2.2.2]octan-1-yl)methyl)carbamoyl)(trans-cyclohexyl) 3-hydroxyazetidine-1-carboxylate] displayed an EC50 not above 50 nM.

For the compound `COc1ccc([C@H]2CC[C@H](CN(c3cccc(-c4cnn(C(C)C)c4)c3)C(=O)[C@H]3CC[C@H](NC(=O)OC4CN(C)C4)CC3)CC2)cc1C` [Compound 6.07, 1-Methylazetidin-3-yl (trans-4-((3-(1-isopropyl-1H-pyrazol-4-yl)phenyl)((trans-4-(4-methoxy-3-methylphenyl)cyclohexyl)meth-yl)carbamoyl)cyclohexyl)carbamate], the EC50 lay in the range of 50 to 1000 nM.

For `COc1ccc([C@H]2CC[C@H](CN(c3cc(-c4coc(C5CC5)n4)ccn3)C(=O)[C@H]3CC[C@H](OC(=O)N4CCN(C)CC4)CC3)CC2)cc1Cl` [Compound 2.07, trans-4-(((trans-4-(3-Chloro-4-methoxyphenyl)cyclohexyl)methyl)(4-(2-cyclopropyloxazol-4-yl)pyridin-2-yl)carbamoyl)cyclohexyl 4-methylpiperazine-1-carboxylate], the EC50 was not above 50 nM.

`COc1ccc(C23CCC(CN(c4ccc(F)c(-c5cnn(C(C)C)c5)c4)C(=O)[C@H]4CC[C@H](OC(=O)N5CC(CS(C)(=O)=O)C5)CC4)(CC2)CC3)cc1C` [Compound 25.10, 4-((4-Fluoro-3-(1-isopropyl-1H-pyrazol-4-yl)phenyl)((4-(4-methoxy-3-methylphenyl)bicyclo[2.2.2]octan-1-yl)methyl)carbamoyl)cyclohexyl trans-3-((methylsulfonyl)methyl)azetidine-1-carboxylate] came in with a half-maximal effective concentration (EC50) not above 50 nM.

Regarding `COc1ccc(C23CCC(CN(c4cc(-c5cnn(C6CCS(=O)(=O)CC6)c5)ccn4)C(=O)[C@H]4CC[C@H](OC(=O)N5CC(O)C5)CC4)(CC2)CC3)cc1C` [Compound 26.23, 4-((4-(1-(1,1-Dioxidotetrahydro-2H-thiopyran-4-yl)-1H-pyrazol-4-yl)pyridin-2-yl)((4-(4-methoxy-3-methylphenyl)bicyclo[2.2.2]octan-1-yl)methyl)carbamoyl)cyclohexyl trans-3-hydroxyazetidine-1-carboxylate], the EC50 is 1000 to 10000 nM.

For the compound `COc1ccc(C23CCC(CN(c4cc(-c5cnn(C6CCC6)c5)ncn4)C(=O)[C@H]4CC[C@H](OC(=O)N5CC(O)C5)CC4)(CC2)CC3)cc1C` [Compound 23.23, 4-((6-(1-Cyclobutyl-1H-pyrazol-4-yl)pyrimidin-4-yl)((4-(4-methoxy-3-methylphenyl)bicyclo[2.2.2]octan-1-yl)methyl)carbamoyl)(trans-cyclohexyl) 3-hydroxyazetidine-1-carboxylate], the EC50 was not above 50 nM.

For `COc1ncc([C@H]2CC[C@H](CN(c3cc(-c4coc(C5CC5)n4)ccn3)C(=O)[C@H]3CC[C@H](OC(=O)N4CC(N(C)C)C4)CC3)CC2)cc1Cl` [Compound 1.06, trans-4-((((trans)-4-(5-Chloro-6-methoxypyridin-3-yl)cyclohexyl)methyl)(4-(2-cyclopropyloxazol-4-yl)pyridin-2-yl)carbamoyl)cyclohexyl 3-(dimethylamino)azetidine-1-carboxylate], the EC50 is not above 50 nM.

With `COc1ccc(C23CCC(CN(c4cc(-c5cnn(C(C)C)c5)ccn4)C(=O)[C@H]4CC[C@H](OC(=O)N5CC(O)C5)CC4)(CC2)CC3)nc1C` [Compound 26.20, 4-((4-(1-Isopropyl-1H-pyrazol-4-yl)pyridin-2-yl)((4-(5-methoxy-6-methylpyridin-2-yl)bicyclo[2.2.2]octan-1-yl)methyl)carbamoyl)cyclohexyl trans-3-hydroxyazetidine-1-carboxylate], the EC50 is not above 50 nM.

For `COc1ccc([C@H]2CC[C@H](CN(c3cc(-c4cnn(C(C)C)c4)ccn3)C(=O)[C@H]3CC[C@H](OC(=O)N4CCN(C)CC4)CC3)CC2)cc1Cl` [Compound 2.06, trans-4-(((trans-4-(3-Chloro-4-methoxyphenyl)cyclohexyl)methyl)(4-(1-isopropyl-1H-pyrazol-4-yl)pyridin-2-yl)carbamoyl)cyclohexyl 4-methylpiperazine-1-carboxylate], the EC50 is not above 50 nM.

For the compound `COc1ccc(C23CCC(CN(c4cc(-c5cnn(C(C)C)c5)ccn4)C(=O)[C@H]4CC[C@H](OC(=O)N5CC(C#N)C5)CC4)(CC2)CC3)cc1C` [Compound 4.45, 4-((4-(1-Isopropyl-1H-pyrazol-4-yl)pyridin-2-yl) ((4-(4-methoxy-3-methylphenyl)bicyclo [2.2.2]octan-1-yl)methyl)carbamoyl)cyclohexyl trans-3-cyanoazetidine-1-carboxylate], the EC50 is not above 50 nM.

`COc1ccc([C@H]2CC[C@](F)(CN(c3cccc(-c4cnn(C(C)C)c4)c3)C(=O)[C@H]3CC[C@H](OC(=O)N4CC(O)C4)CC3)CC2)cc1C` [Compound 25.01, 4-((((trans)-1-Fluoro-4-(4-methoxy-3-methylphenyl)cyclohexyl)methyl)(3-(1-isopropyl-1H-pyrazol-4-yl)phenyl)carbamoyl)(trans-cyclohexyl) 3-hydroxyazetidine-1-carboxylate] came in with an EC50 not above 50 nM.
